In BindingDB's records for doi:10.7270/Q2QR4VH9 (University of Pittsburgh, 2006) one finds IC50 data, which are given here for 50 molecules.

Bounds are passed on as bounds.

This assay deals with T1, Dual specificity protein phosphatase 1 (Homo sapiens, UniProt P28562).
T1 sequence (P28562 whole entry): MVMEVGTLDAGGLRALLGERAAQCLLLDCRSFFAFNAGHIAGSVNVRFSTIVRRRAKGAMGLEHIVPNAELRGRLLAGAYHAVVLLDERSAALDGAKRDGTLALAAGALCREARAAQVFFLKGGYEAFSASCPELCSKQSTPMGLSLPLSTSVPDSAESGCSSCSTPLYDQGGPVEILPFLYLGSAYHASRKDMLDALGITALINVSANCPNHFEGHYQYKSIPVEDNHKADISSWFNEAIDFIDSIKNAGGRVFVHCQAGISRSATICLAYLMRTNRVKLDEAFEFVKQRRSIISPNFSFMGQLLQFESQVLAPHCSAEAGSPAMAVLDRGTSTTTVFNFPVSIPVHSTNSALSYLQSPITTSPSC
The experiment in a line: reproducibility of MKP-1 inhibition curves – biochemical, reproducibility testing, probe assessment, dose response (AID 563).

Broadly, the IC50 is the concentration needed to halve the response being measured. Higher therefore signals weaker potency.

In turn, `O=C(Nc1ccc2nc(-c3ccco3)c(-c3ccco3)nc2c1)N1CCCCCC1` returned an IC50 of 26 µM. Next, `CCCCCC#CCC#CCC#CCC#CCCCC(=O)O`: 12.1 µM. Consider `Cn1ncnc2c(=O)n(C)c(=O)nc1-2`, for which the half-maximal inhibitory concentration (IC50) amounted to 0.743 µM. This IC50 lies about 16-fold lower than the previous one. Next, `[O-]/[N+](=C\c1ccncc1)c1ccccc1`: greater than 50 µM; `O=C1C=Cc2ccccc2C1=O` [1,2-dihydronaphthalene-1,2-dione]: 36.4 µM; `Cc1nc2cc(-c3cccc(F)c3)nn2c(C)c1CCC(=O)N1CCC2(CC1)OCCO2` [1-(1,4-dioxa-8-azaspiro[4.5]decan-8-yl)-3-[2-(3-fluorophenyl)-5,7-dimethyl-6-pyrazolo[1,5-a]pyrimidinyl]-1-propanone]: greater than 50 µM. Next, `CCn1nc(-c2ccccc2)nc2c(=O)n(C)c(=O)nc1-2` [1-Ethyl-6-methyl-3-phenyl-1H-pyrimido[5,4-e][1,2,4]triazine-5,7-dione]: 1.19 µM. Next, `Cc1cc(C)n2c(SCC(=O)N3CCN(S(=O)(=O)c4ccc(Cl)cc4)CC3)nnc2n1` [1-[4-(4-chlorophenyl)sulfonyl-1-piperazinyl]-2-[(5,7-dimethyl-[1,2,4]triazolo[4,3-a]pyrimidin-3-yl)thio]ethanone]: 48.8 µM.

Consider `[O-]/[N+](=C\c1ccc(OC(F)F)cc1)c1ccccc1` [1-[4-(difluoromethoxy)phenyl]-N-phenylmethanimine oxide], for which the IC50 is greater than 50 µM. `CCCCn1c(SCC(=O)c2ccc(OC)cc2OC)nc2cc(S(N)(=O)=O)ccc21` [1-butyl-2-[2-(2,4-dimethoxyphenyl)-2-oxidanylidene-ethyl]sulfanyl-benzimidazole-5-sulfonamide] registered an IC50 of 45.6 µM.

Molecule `CCn1nc(-c2cccs2)nc2c(=O)n(C)c(=O)nc1-2` [1-ethyl-6-methyl-3-thiophen-2-yl-pyrimido[5,4-e][1,2,4]triazine-5,7-dione] gave an IC50 of 1.24 µM. `O=C(Nc1ccccc1)c1ccc2nc(-c3ccco3)c(-c3ccco3)nc2c1` [2,3-di-2-furyl-N-phenyl-6-quinoxalinecarboxamide] showed an IC50 of 35.7 µM. Next, `CC(C)Cn1c(N)c(C(=O)COC(=O)c2cc(-c3ccco3)nc3ccccc23)c(=O)n(C)c1=O` [2-(2-furanyl)-4-quinolinecarboxylic acid [2-[4-amino-1-methyl-3-(2-methylpropyl)-2,6-dioxo-5-pyrimidinyl]-2-oxoethyl] ester]: 24.2 µM; `CCOc1ccc(-c2cc3nc(C4CCN(C(=O)OC(C)(C)C)CC4)c(C(=O)O)cn3n2)cc1` [2-(4-ethoxyphenyl)-5-[1-[(2-methylpropan-2-yl)oxy-oxomethyl]-4-piperidinyl]-6-pyrazolo[1,5-a]pyrimidinecarboxylic acid]: 30.5 µM. In the case of `COc1ccc(-c2cc3nc(C4CCN(C(=O)OC(C)(C)C)CC4)c(C(=O)O)cn3n2)cc1` [2-(4-methoxyphenyl)-5-[1-[(2-methylpropan-2-yl)oxy-oxomethyl]-4-piperidinyl]-6-pyrazolo[1,5-a]pyrimidinecarboxylic acid], the concentration for half-maximal inhibition (IC50) was 33.9 µM. Regarding `Cc1cccc(NC(=O)c2cc(NC(=O)C3CCCCC3C(=O)O)ccc2N2CCCCC2)c1` (stereo not given) [2-({[3-{[(3-methylphenyl)amino]carbonyl}-4-(1-piperidinyl)phenyl]amino}carbonyl)cyclohexanecarboxylic acid], the half-maximal inhibitory concentration (IC50) was greater than 50 µM. Turning to `Cc1ccc(/C=C/C2=Cc3c(sc(NC(=O)CSc4nnc(N)[nH]4)c3C#N)C(C)(C)C2)o1` [2-[(5-azanyl-1H-1,2,4-triazol-3-yl)sulfanyl]-N-[3-cyano-7,7-dimethyl-5-[(E)-2-(5-methylfuran-2-yl)ethenyl]-6H-1-benzothiophen-2-yl]ethanamide], it took 17.8 µM to reach half-maximal inhibition (IC50). `CCCCNC(=O)c1c(N)n(CCCOC)c2nc3ccccc3nc12` [2-amino-N-butyl-1-(3-methoxypropyl)-3-pyrrolo[3,2-b]quinoxalinecarboxamide] returned an IC50 of 47.1 µM. Next, `N#Cc1c(N)sc(=S)c2c1CCN(Cc1ccccc1)C2` [3-Amino-7-benzyl-1-thioxo-5,6,7,8-tetrahydro-1H-thiopyrano[3,4-c]pyridine-4-carbonitrile]: 7.34 µM. Next, `O=C1C=C(NCc2ccc(Cl)c(Cl)c2)CC1` [3-[(3,4-dichlorobenzyl)amino]cyclopent-2-en-1-one]: greater than 50 µM; `CCCSc1nnc(NC(=O)c2sc3nc(-c4cccs4)ccc3c2N)s1` [3-amino-N-(5-propylsulfanyl-1,3,4-thiadiazol-2-yl)-6-thiophen-2-ylthieno[2,3-b]pyridine-2-carboxamide]: 21.8 µM. As to `O=C1Nc2ccccc2SC(c2ccccc2)C1O` (stereo not given) [3-hydroxy-2-phenyl-2,3-dihydro-1,5-benzothiazepin-4(5H)-one], the IC50 turned out to be 33.2 µM. This IC50 lies about 1.5-fold higher than the previous one.

For the molecule `CC(C)(C)N1C(=O)Cc2c1nc(N)c1c(N)nc(N3CCCCC3CO)c(C#N)c21` (stereo not given) [5,6-bis(azanyl)-3-tert-butyl-8-[2-(hydroxymethyl)piperidin-1-yl]-2-oxidanylidene-1H-pyrrolo[2,3-c][2,7]naphthyridine-9-carbonitrile], the IC50 was greater than 50 µM. Next, `COc1cc(/C=C(/C#N)c2ccc(F)cc2)ccc1OCc1ccc(C(=O)O)o1` [5-({4-[2-cyano-2-(4-fluorophenyl)vinyl]-2-methoxyphenoxy}methyl)-2-furoic acid]: greater than 50 µM. Consider `COc1ccc(Br)cc1C=c1sc2nc(-c3ccco3)nn2c1=O` [5-[(5-bromanyl-2-methoxy-phenyl)methylidene]-2-(furan-2-yl)-[1,3]thiazolo[3,2-b][1,2,4]triazol-6-one], for which the IC50 amounted to 12.8 µM. As to `CCOc1cc(/C=C(/C#N)c2ccc(F)cc2)ccc1OCc1ccc(C(=O)O)o1` [5-[[4-[(E)-2-cyano-2-(4-fluorophenyl)ethenyl]-2-ethoxyphenoxy]methyl]furan-2-carboxylic acid], the IC50 worked out at 36.7 µM. As to `N#Cc1c(NC(=O)c2ccc(Br)o2)n(-c2ccccc2)c2nc3ccccc3nc12` [5-bromanyl-N-(3-cyano-1-phenyl-pyrrolo[3,2-b]quinoxalin-2-yl)furan-2-carboxamide], the midpoint of inhibition, the IC50, lay at 24.4 µM. Compared with the last molecule, the IC50 is about 1.5-fold lower.

As to `O=C(c1cccs1)c1no[n+]([O-])c1C(=O)c1cccs1` [(5-oxidanidyl-4-thiophen-2-ylcarbonyl-1,2,5-oxadiazol-5-ium-3-yl)-thiophen-2-yl-methanone], 6.39 µM corresponded to half-maximal inhibition (IC50).

`Nc1c(N2CCCC2)cc(Cl)c2nonc12` [(7-chloro-5-pyrrolidino-benzofurazan-4-yl)amine]: the IC50 was greater than 50 µM. Next, `[O-]/[N+](=C/c1ccc(F)cc1)c1ccccc1` [(E)-(4-fluorobenzylidene)(phenyl)azane oxide]: greater than 50 µM; `CC1=C(/C=C/C(C)=C/C=C/C(C)=C/C(=O)O)C(C)(C)CCC1` [ALL-TRANS-RETINOIC ACID]: 42.9 µM; `CC(=O)[C@@H]1[C@@H]2C(=O)N(c3ccc(F)c(Cl)c3)C(=O)[C@@H]2C2c3ccccc3C=CN21` (stereo not given in full) [MLS000040594]: greater than 50 µM. In turn, `COCCCn1c(N)c(C(=O)NCCC(C)C)c2nc3ccccc3nc21` [MLS000041744] came in with a 50% inhibitory concentration (IC50) greater than 50 µM. Next, `CCn1c(SCC(=O)Nc2ccc3c(c2)c2ccccc2n3CC)nnc1-c1ccco1` [MLS000050867]: 20.3 µM; `O=C1C(=C2C(=O)c3ccccc3C2=O)Nc2ccccc21` [MLS000071738]: greater than 50 µM. Turning to `COc1ccc(-n2c(NC(=O)c3ccco3)c(C#N)c3nc4ccccc4nc32)cc1` [MLS000079925], the IC50 came to 34.1 µM. Next, `COc1ccc(Cn2c(C)nc3c(c2=O)c2nc4ccccc4nc2n3Cc2ccco2)cc1` [MLS000079944]: 21.6 µM; `Nc1nc2c(s1)CCc1c-2cnn1-c1ccccc1` [MLS000085948]: greater than 50 µM; `Cc1cc(NC(=O)c2ccc(S(=O)(=O)N3CCCC3)cc2)nc2c1c(=O)oc1ccccc12` [MLS000091355]: 24.9 µM. Next, `FC(F)(F)c1ccc(N2CCOCC2)c(Nc2nc3ccccc3n3cnnc23)c1` [MLS000093276]: greater than 50 µM. For `COC(=O)c1ccccc1NC(=O)CN1C(=O)C2CCCN2c2ncc(Cl)cc21` (stereo not given) [MLS000094302], it took 46.2 µM to reach half-maximal inhibition (IC50).

Take `CCc1ccc(NC(=O)CSc2nc3ccccc3c(=O)n2CCN2CCOCC2)cc1` [MLS000095236]: the IC50 is greater than 50 µM. For `Cc1c(N=c2c(=O)c3ccccc3c2=O)c(=O)n(-c2ccccc2)n1C` [MLS000105950], the IC50 worked out at 26.2 µM. On to `CCOc1ccc2noc3c2c1C(=O)c1ccccc1-3` [MLS000106837], for which the IC50 is greater than 50 µM. Next, `COc1ccc2noc3c2c1C(=O)c1ccccc1-3` [MLS000106874]: 46.1 µM; `O=C(NC1(O)C(=O)c2ccccc2C1=O)c1ccccc1` [N-(2-hydroxy-1,3-dioxo-2-indenyl)benzamide]: 48.2 µM. Next, `O=C(OC1CCCCC1)c1ccc2c(c1)C1C=CCC1C(C(=O)O)N2` (stereo not given) [SMR000019385]: 14.5 µM; `O=C1c2ccccc2-c2onc3ccc(NCCCn4ccnc4)c1c23` [SMR000044769]: 27.7 µM. `CCCCn1c(NC(=O)c2ccccc2)c(C#N)c2nc3ccccc3nc21` [SMR000060333] had an IC50 of 30 µM. Next, `N#Cc1c(N2CCCC2)nc(N)c2c(N)nc(N3CCCC3)cc12` [SMR000061605]: 18.8 µM.
